The test has as its target human P2X3 receptor (Homo sapiens (Human), UniProt P56373). Put plainly: Evaluation of human P2X3 receptor inhibitory activity (Fluo-3 calcium fluorescence, FDSS 3000, ATP stimulation).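 Also: stimulus was 50 nM ATP with fluorescence followed for 3 min, and the response per well was peak post-ATP fluorescence divided by the reading at measurement start.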 The format is cell-based.
Setting [1] is: C6BU-1 cells stably expressing human P2X3 receptor.
Where [2] appears, read: human P2X3 receptor, Test Example 1.

Sequence of human P2X3 receptor (P56373 whole entry): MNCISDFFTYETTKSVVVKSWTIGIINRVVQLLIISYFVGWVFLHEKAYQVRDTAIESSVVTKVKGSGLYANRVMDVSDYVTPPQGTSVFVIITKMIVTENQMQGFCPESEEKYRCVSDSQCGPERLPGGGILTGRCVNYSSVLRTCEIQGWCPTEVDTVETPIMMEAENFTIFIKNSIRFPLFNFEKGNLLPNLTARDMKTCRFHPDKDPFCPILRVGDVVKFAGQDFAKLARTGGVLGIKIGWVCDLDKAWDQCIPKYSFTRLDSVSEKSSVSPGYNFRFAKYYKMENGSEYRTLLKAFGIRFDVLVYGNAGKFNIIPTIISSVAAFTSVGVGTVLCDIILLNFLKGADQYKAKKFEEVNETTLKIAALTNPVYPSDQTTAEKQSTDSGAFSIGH

In the case of `Cc1ccc(Cn2c(=O)n(C[C@H](C)C(=O)O)c(=O)[nH]/c2=N\c2ccc(Oc3ccnc(O)c3)cc2)cc1` [Compound I-1440], under setting [1], the IC50 worked out at 6 nM.
The same measure, in the same setting: under `O=C(O)CCn1c(=O)[nH]/c(=N\c2ccc(Oc3ccnc(O)c3)cc2)n(Cc2ccc(Cl)cc2)c1=O` [Compound I-1441] stands 9 nM; under `CC(C)Cc1ccc(/N=c2\[nH]c(=O)n([C@@H](C)[C@@H](C)C(=O)O)c(=O)n2Cc2ccc(Cl)cc2)cc1Cl` [Compound I-1442], 8 nM.
`Cc1ccc(Cn2c(=O)n([C@@H](C)[C@@H](C)C(=O)O)c(=O)[nH]/c2=N\c2ccc(CC(C)C)c(Cl)c2)cc1` [Compound I-1443]: the concentration for half-maximal inhibition (IC50) under setting [1] was 6 nM.
The same measure, in the same setting: under `Cc1ccc(Cn2c(=O)n([C@H](C)[C@H](C)C(=O)O)c(=O)[nH]/c2=N\c2ccc(CC(C)C)c(Cl)c2)cc1` [Compound I-1444] stands 4 nM; under `CC(C)Cc1ccc(/N=c2\[nH]c(=O)n([C@H](C)[C@H](C)C(=O)O)c(=O)n2Cc2ccc(Cl)cc2)cc1Cl` [Compound I-1445], 4 nM.
Still for that read-out and setting: the value for `COC(=O)C(C)(C)Cn1c(=O)[nH]/c(=N\c2ccc(CC(C)C)c(Cl)c2)n(Cc2ccc(C)cc2)c1=O` [Compound I-1447] was 6 nM; that for `CCOC(=O)C1(Cn2c(=O)[nH]/c(=N\c3ccc(CC(C)C)c(Cl)c3)n(Cc3ccc(C)cc3)c2=O)CC1` [Compound I-1448] was 12 nM.
As for `CCOC(=O)CCn1c(=O)[nH]/c(=N\c2ccc(OC(C)C)c(Cl)c2)n(CC2CCC3(CC2)CC3)c1=O` [Compound I-1449], the IC50 under setting [1] stood at 4 nM.
For the molecule `CC(C)Oc1ccc(/N=c2\[nH]c(=O)n(CCC(=O)Nc3ccc(OC(C)C)c(Cl)c3)c(=O)n2CC2CCC3(CC2)CC3)cc1Cl` [Compound I-1450], under setting [1], the IC50 amounted to 448 nM.
On the same count and under the same terms, the value for `Cc1ccc(Cn2c(=O)n(CC3(C(=O)O)CC3)c(=O)[nH]/c2=N\c2ccc(CC(C)C)c(Cl)c2)cc1` [Compound I-1451] was 5 nM; that for `COC(=O)[C@@H](C)[C@@H](C)n1c(=O)[nH]/c(=N\c2ccc(OC3CCC3)cc2)n(Cc2ccc(Cl)cc2)c1=O` [Compound I-1452] was 14 nM.
The same measure, in the same setting: the value for `COC(=O)[C@@H](C)[C@@H](C)n1c(=O)[nH]/c(=N\c2ccc(OC3CCC3)cc2)n(Cc2ccc(C)cc2)c1=O` [Compound I-1453] was 13 nM; that for `COC(=O)[C@@H](C)[C@@H](C)n1c(=O)[nH]/c(=N\c2ccc(N3CCCCC3)cc2)n(Cc2ccc(Cl)cc2)c1=O` [Compound I-1454] was 23 nM.
Same read-out and setting: under `COC(=O)[C@@H](C)[C@@H](C)n1c(=O)[nH]/c(=N\c2ccc(N3CCCCC3)cc2)n(Cc2ccc(C)cc2)c1=O` [Compound I-1455] stands 32 nM.
Regarding `C[C@H](C(=O)O)[C@@H](C)n1c(=O)[nH]/c(=N\c2ccc(OC3CCC3)cc2)n(Cc2ccc(Cl)cc2)c1=O` [Compound I-1456], the IC50 under setting [1] is 14 nM.
For `Cc1ccc(Cn2c(=O)n([C@H](C)[C@H](C)C(=O)O)c(=O)[nH]/c2=N\c2ccc(OC3CCC3)cc2)cc1` [Compound I-1457], under setting [1], the IC50 was found to be 14 nM.
On the same count and under the same terms, under `C[C@H](C(=O)O)[C@@H](C)n1c(=O)[nH]/c(=N\c2ccc(N3CCCCC3)cc2)n(Cc2ccc(Cl)cc2)c1=O` [Compound I-1458] stands 25 nM; under `Cc1ccc(Cn2c(=O)n([C@H](C)[C@H](C)C(=O)O)c(=O)[nH]/c2=N\c2ccc(N3CCCCC3)cc2)cc1` [Compound I-1459], 34 nM.
Same read-out and setting: under `COC(=O)[C@@H](C)Cn1c(=O)[nH]/c(=N\c2ccc(C3CC3)cc2)n(Cc2ccc(C)cc2)c1=O` [Compound I-1460] stands 272 nM; under `CC(C)Oc1ccc(/N=c2\[nH]c(=O)n(CCC(=O)O)c(=O)n2CC2CCC3(CC2)CC3)cc1Cl` [Compound I-1461], 25 nM; under `Cc1ccc(Cn2c(=O)n(CC(C)(C)C(=O)O)c(=O)[nH]/c2=N\c2ccc(CC(C)C)c(Cl)c2)cc1` [Compound I-1462], 3 nM.
As to `COC(=O)[C@@H](C)Cn1c(=O)[nH]/c(=N\c2ccc(CC(C)C)c(Cl)c2)n(Cc2ccc(C)nc2)c1=O` [Compound I-1464], under setting [1], the half-maximal inhibitory concentration (IC50) came to 70 nM.
Consider `CCc1oc2ccc(/N=c3\[nH]c(=O)n(C[C@H](C)C(=O)O)c(=O)n3Cc3ccc(Cl)cc3)cc2c1C` [Compound I-1465], for which the IC50 under setting [1] was determined as 6 nM.
The same measure, in the same setting: the value for `CC1Cc2cc(/N=c3\[nH]c(=O)n(C[C@H](C)C(=O)O)c(=O)n3Cc3ccc(Cl)cc3)ccc2O1` (stereo partly shown) [Compound I-1466] was 121 nM.
On the same count and under the same terms, under `Cc1nc2ccc(/N=c3\[nH]c(=O)n([C@H](C)[C@H](C)C(=O)O)c(=O)n3Cc3ccc(Cl)cc3)cc2s1` [Compound I-1467] stands 12 nM.
Still for that read-out and setting: under `Cc1ccc(Cn2c(=O)n([C@H](C)[C@H](C)C(=O)O)c(=O)[nH]/c2=N\c2ccc3nc(C)sc3c2)cc1` [Compound I-1468] stands 10 nM; under `Cc1nc2ccc(/N=c3\[nH]c(=O)n([C@@H](C)[C@@H](C)C(=O)O)c(=O)n3Cc3ccc(Cl)cc3)cc2s1` [Compound I-1469], 9 nM; under `Cc1ccc(Cn2c(=O)n([C@@H](C)[C@@H](C)C(=O)O)c(=O)[nH]/c2=N\c2ccc3nc(C)sc3c2)cc1` [Compound I-1470], 10 nM.
With `Cc1ccc(Cn2c(=O)n(C[C@H](C)C(=O)O)c(=O)[nH]/c2=N\c2ccc3nc(C)sc3c2)cc1` [Compound I-1473], the IC50 under setting [1] stood at 12 nM.
On the same count and under the same terms, under `COC(=O)[C@@H](C)Cn1c(=O)[nH]/c(=N\c2cnc(Oc3ccccc3)c(Cl)c2)n(Cc2ccc(C)cc2)c1=O` [Compound I-1474] stands 138 nM.
Still for that read-out and setting: the value for `COC(=O)[C@@H](C)Cn1c(=O)[nH]/c(=N\c2cnc(OC3CCCC3)c(Cl)c2)n(Cc2ccc(C)cc2)c1=O` [Compound I-1475] was 39 nM; that for `Cc1ccc(Cn2c(=O)n(C[C@H](C)C(=O)O)c(=O)[nH]/c2=N\c2cnc(Oc3ccccc3)c(Cl)c2)cc1` [Compound I-1476] was 262 nM.
Same read-out and setting: under `Cc1ccc(Cn2c(=O)n(C[C@H](C)C(=O)O)c(=O)[nH]/c2=N\c2cnc(OC3CCCC3)c(Cl)c2)cc1` [Compound I-1477] stands 68 nM; under `COC(=O)[C@@H](C)Cn1c(=O)[nH]/c(=N\c2cnc(OC3CCC3)c(C)c2)n(Cc2ccc(C)cc2)c1=O` [Compound I-1478], 19 nM.
On to `COC(=O)[C@@H](C)Cn1c(=O)[nH]/c(=N\c2cnc(OC3CCC3)c(C)c2)n(Cc2ccc(Cl)cc2)c1=O` [Compound I-1479], for which, under setting [2], the IC50 was found to be 20 nM.
Same read-out and setting: the value for `COC(=O)C1(Cn2c(=O)[nH]/c(=N\c3ccc(OC(C)C)c(C)c3)n(Cc3ccc(Cl)cc3)c2=O)COC1` [Compound I-1480] was 2 nM.
Consider `Cc1cc(/N=c2\[nH]c(=O)n(CC3(C(=O)O)COC3)c(=O)n2Cc2ccc(Cl)cc2)ccc1OC(C)C` [Compound I-1481], for which the IC50 under setting [2] is 39 nM.
Still for that read-out and setting: the value for `Cc1ccc(Cn2c(=O)n(C[C@H](C)C(=O)O)c(=O)[nH]/c2=N\c2cnc(OC3CCC3)c(C)c2)cc1` [Compound I-1482] was 98 nM; that for `Cc1cc(/N=c2\[nH]c(=O)n(C[C@H](C)C(=O)O)c(=O)n2Cc2ccc(Cl)cc2)cnc1OC1CCC1` [Compound I-1483] was 87 nM.
Regarding `COC(=O)[C@H](C)Cn1c(=O)[nH]/c(=N\c2ccc(N3CCCCC3)cc2)n(Cc2ccc(Cl)cc2)c1=O` [Compound I-1484], the 50% inhibitory concentration (IC50) under setting [2] is 6 nM.
Still for that read-out and setting: the value for `Cc1ccc(Cn2c(=O)n(C[C@H](C)C(=O)O)c(=O)[nH]/c2=N\c2ccc(CC(C)C)c(Cl)c2)cn1` [Compound I-1485] was 235 nM; that for `C[C@H](Cn1c(=O)[nH]/c(=N\c2ccc(N3CCCCC3)cc2)n(Cc2ccc(Cl)cc2)c1=O)C(=O)O` [Compound I-1486] was 43 nM; that for `COC(=O)[C@@H](C)Cn1c(=O)[nH]/c(=N\c2ccc(C3CC3)c(Cl)c2)n(Cc2ccc(C)cc2)c1=O` [Compound I-1487] was 106 nM.
Still for that read-out and setting: the value for `COC(=O)[C@@H](C)Cn1c(=O)[nH]/c(=N\c2ccc(C3CC3)c(C3CC3)c2)n(Cc2ccc(C)cc2)c1=O` [Compound I-1488] was 652 nM; that for `Cc1ccc(Cn2c(=O)n(C[C@H](C)C(=O)O)c(=O)[nH]/c2=N\c2ccc(C3CC3)c(Cl)c2)cc1` [Compound I-1489] was 254 nM; that for `C=C(C)c1ccc(/N=c2\[nH]c(=O)n(C[C@H](C)C(=O)OC)c(=O)n2Cc2ccc(C)cc2)cc1Cl` [Compound I-1491] was 284 nM.
Same read-out and setting: the value for `C=C(C)c1ccc(/N=c2\[nH]c(=O)n(C[C@H](C)C(=O)O)c(=O)n2Cc2ccc(C)cc2)cc1Cl` [Compound I-1492] was 461 nM.
Turning to `COC(=O)[C@@H](C)Cn1c(=O)[nH]/c(=N\c2ccc(C(C)C)c(Cl)c2)n(Cc2ccc(C)cc2)c1=O` [Compound I-1493], under setting [2], the IC50 amounted to 444 nM.
Same read-out and setting: under `Cc1ccc(Cn2c(=O)n(C[C@H](C)C(=O)O)c(=O)[nH]/c2=N\c2ccc(C(C)C)c(Cl)c2)cc1` [Compound I-1494] stands 571 nM; under `Cc1ccc(Cn2c(=O)n(CC3(C(=O)O)COC3)c(=O)[nH]/c2=N\c2ccc(OC(C)C)c(Cl)c2)cc1` [Compound I-1495], 26 nM; under `Cc1ccc(Cn2c(=O)n(CC3(C(=O)O)COC3)c(=O)[nH]/c2=N\c2ccc(CC(C)C)c(Cl)c2)cc1` [Compound I-1496], 9 nM.
Same read-out and setting: under `COC(=O)[C@@H](C)Cn1c(=O)[nH]/c(=N\c2cc(Cl)cc(Cl)c2)n(Cc2ccc(C)cc2)c1=O` [Compound I-1497] stands 619 nM.
On the same count and under the same terms, the value for `CCOCc1ccc(/N=c2\[nH]c(=O)n(C[C@H](C)C(=O)OC)c(=O)n2Cc2ccc(C)cc2)cc1Cl` [Compound I-1498] was 22 nM; that for `CCOc1c(Cl)cc(/N=c2\[nH]c(=O)n(C[C@H](C)C(=O)OC)c(=O)n2Cc2ccc(C)cc2)cc1Cl` [Compound I-1499] was 19 nM.
In the case of `Cc1ccc(Cn2c(=O)n(C[C@H](C)C(=O)O)c(=O)[nH]/c2=N\c2cc(Cl)cc(Cl)c2)cc1` [Compound I-1500], the IC50 under setting [2] was found to be 897 nM.
Still for that read-out and setting: the value for `COCc1c(Cl)cc(/N=c2\[nH]c(=O)n(C[C@H](C)C(=O)O)c(=O)n2Cc2ccc(C)cc2)cc1Cl` [Compound I-1501] was 11 nM; that for `CCOCc1ccc(/N=c2\[nH]c(=O)n(C[C@H](C)C(=O)O)c(=O)n2Cc2ccc(C)cc2)cc1Cl` [Compound I-1502] was 107 nM.

Usually IC50 stands for the concentration that gives 50% inhibition.
